From paper PMC3017600 (Nucleic Acids Research, 2010)
Blank lines part the entries; values can stand above or below the molecule they belong to. Where no end group is shown, it is not given here. [ ]: non-standard residue; d: D form. pS = N[C@@H](COP(=O)(O)O)C(=O)O

Legend:
[1] = tested on: TopBP1(1–290) double mutants; assay: Fluorescence polarization binding, double mutants; parameters: species or system human; conditions: putative binding sites in both BRCT1 and BRCT2 disrupted
[2] = target: TopBP1(1–290) wild-type (Homo sapiens, UniProt Q92547); type: binding; conditions: fluorescence polarization; 10 nM fluorescein-labelled peptide; 4°C, 30 min
[3] = target: TopBP1(1–290) (human, UniProt Q92547 1-290); assay: fluorescence polarisation
[4] = tested on: TopBP1(1–290); assay: Co-precipitation; type: binding, human; conditions: Glutathione Sepharose; no Mg-ATP; SDS–PAGE

Chain of TopBP1(1–290) (human, UniProt Q92547 1-290) (Q92547 1-290): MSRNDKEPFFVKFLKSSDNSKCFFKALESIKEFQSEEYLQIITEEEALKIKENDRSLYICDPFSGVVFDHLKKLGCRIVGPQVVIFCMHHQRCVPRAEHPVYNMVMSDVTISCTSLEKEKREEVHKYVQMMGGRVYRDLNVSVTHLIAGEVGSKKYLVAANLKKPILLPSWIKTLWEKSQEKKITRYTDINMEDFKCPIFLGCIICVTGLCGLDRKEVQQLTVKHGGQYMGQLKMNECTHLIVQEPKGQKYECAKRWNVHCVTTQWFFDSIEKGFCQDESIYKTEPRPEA
Chain of TopBP1(1–290) wild-type (Q92547 1-290): as above

Interaction with TopBP1(1–290) double mutants (in words) [1]: no measurable interaction
Molecule: fluorescein-GGPSPVLAED[pS]EGEG [Rad9, pS387]

Binding to wild-type TopBP1(1–290) (in words) [2]: no significant affinity was observed
Molecule: fluorescein-GGSDTDSH[pS]QDLGSPE [Rad9, pS272]

Kd [3]: 2100 nM
Molecule: fluorescein-GGPSPVLAED[pS]EGEG (also: phosphoserine at 387 (Rad9 numbering)) [Rad9, pS387 fluorescein-labelled peptide]

B1: GST-Rad9Tail: GST-fusion with the C-terminus of human Rad9 (amino acids 264–391), expressed in E. coli (protein)
chain: TLSDTDSHSQDLGSPERHQPVPQLQAHSTPHPDDFANDDIDSYMIAMETTIGNEGSRVLPSISLSPGPQPPKSPGPHSEEEDEAEPSTVPGTPPPKKFRSLFFGSILAPVRSPQGPSPVLAEDSEGEG
modifications: left off: GST, N-terminal, kept
Co-precipitation of TopBP1(1–290) by GST fusion incubated with CK2α in the absence of Mg-ATP [4]: failed to co-precipitate detectable
